# Laboratory results published in patent US11484559B2, “Kapok tree flower extract, and cosmetic, pharmaceutical or dermatological compositions containing same” (Laboratoires Expanscience, priority 2017, dated 2022).
# Tests used:
# [1] = tested on: intracellular ROS (Reactive Oxygen Species); test: Production of ROS in keratinocytes subjected to H2O2 stress (DCFH-DA probe); assay type: cell-based, human; settings: for ROS Mean: H2O2 100 μM
# Description: The antioxidant potential of the KPO extract was evaluated in an assay model of intracellular ROS (Reactive Oxygen Species) induced by pro-oxidising H2O2 stress. Normal human epidermal keratinocytes were pre-incubated for 24 hours with KPO extract at 0.001%, 0.002% or 0.005% (d.e.) or reference anti-inflammatory molecules Quercetin at 10 μM or Vitamin C at 500 μM. The cell layer was then contacted with a DCFH-DA probe prior to induction of oxidative stress by 100 μM of H2O2. The amount of ROS produced was evaluated by measuring the fluorescence emitted when the probe is oxidised. The results were analysed statistically by one-factor variance analysis followed by a Tukey test: **p<0.01; ***p<0.001.
# Collagen I = test: Gene expression in normal human dermal fibroblasts (RT-qPCR): Collagen I; assay type: cell-based; settings: TGFβ1 5 ng/ml
# Description: (§1) The effect of the KPO extract was evaluated on the gene expression of markers involved in cell communication and in the organisation of the dermal extracellular matrix in the fibroblasts: normal human dermal fibroblasts were incubated for 6 hours or 24 hours with 0.0005% or 0.001% KPO extract (d.e.) or TGFβ1 at 5 ng/ml (positive control for dermal matrix induction markers). At the end of incubation, the gene expression of the following markers was analysed by RT-qPCR. • CTNNA1 (Catenin α): binds to cadherins to promote cellular interactions. • Syndecan: proteoglycan which consolidates cell/cell and cell/matrix interactions. • Laminin 5 (α3β3γ2): a molecule that assists adhesion to the basal membrane. • TNC (Tenacin C): extracellular matrix proteins involved in cohesion of the dermo-epidermal junction and which promote the synthesis of collagen VII. • SPARC: protein associated with various constituents of the extracellular matrix and which contributes to its organisation. • BGN (Biglycan): proteoglycan involved in the assembly of collagen fibres. • Versican: a major component of the ECM which plays a central role in the morphogenesis and maintenance of tissues. […]
# (§2) The results are given as relative quantities (RQ) with respect to the untreated control. […]
# Dermatopontin = test: Gene expression in normal human dermal fibroblasts (RT-qPCR): Dermatopontin; assay type: cell-based; settings: TGFβ1 5 ng/ml
# Description: as §1, §2
# CTNNA1 (Catenin α) = test: Gene expression in normal human dermal fibroblasts (RT-qPCR): CTNNA1; assay type: cell-based; settings: TGFβ1 5 ng/ml
# Description: as §1, §2
# SPARC = test: Gene expression in normal human dermal fibroblasts (RT-qPCR): SPARC; assay type: cell-based; settings: TGFβ1 5 ng/ml
# Description: as §1, §2
# Elastin = test: Gene expression in normal human dermal fibroblasts (RT-qPCR): Elastin; assay type: cell-based; settings: TGFβ1 5 ng/ml
# Description: as §1, §2
# TNC (Tenacin C) = test: Gene expression in normal human dermal fibroblasts (RT-qPCR): TNC; assay type: cell-based; settings: TGFβ1 5 ng/ml
# Description: as §1, §2
# BGN (Biglycan) = test: Gene expression in normal human dermal fibroblasts (RT-qPCR): BGN; assay type: cell-based; settings: TGFβ1 5 ng/ml
# Description: as §1, §2
# Collagen III = test: Gene expression in normal human dermal fibroblasts (RT-qPCR): Collagen III; assay type: cell-based; settings: TGFβ1 5 ng/ml
# Description: as §1, §2
# LOXL = test: Gene expression in normal human dermal fibroblasts (RT-qPCR): LOXL; assay type: cell-based; settings: TGFβ1 5 ng/ml
# Description: as §1, §2
# Syndecan = test: Gene expression in normal human dermal fibroblasts (RT-qPCR): Syndecan; assay type: cell-based; settings: TGFβ1 5 ng/ml
# Description: as §1, §2
# Fibronectin = test: Gene expression in normal human dermal fibroblasts (RT-qPCR): Fibronectin; assay type: cell-based; settings: TGFβ1 5 ng/ml
# Description: as §1, §2
# Collagen VII = test: Gene expression in normal human dermal fibroblasts (RT-qPCR): Collagen VII; assay type: cell-based; settings: TGFβ1 5 ng/ml
# Description: as §1, §2
# Collagen IV = test: Gene expression in normal human dermal fibroblasts (RT-qPCR): Collagen IV; assay type: cell-based; settings: TGFβ1 5 ng/ml
# Description: as §1, §2
# Versican = test: Gene expression in normal human dermal fibroblasts (RT-qPCR): Versican; assay type: cell-based; settings: TGFβ1 5 ng/ml
# Description: as §1, §2
# Prostaglandin E2 (PGE2) = test: Production of PGE2 in keratinocytes stimulated by PMA (ELISA); assay type: cell-based, human; settings: indomethacin at 0.1 μM
# Description: The keratinocytes were then stimulated by 10 μg/ml of PMA (Phorbol Myristate Acetate) and incubated overnight with KPO extract or reference molecules. […] The significance was evaluated by means of one-factor variance analysis followed by a Tukey test: *p<0.05; ***p<0.001; ns: non-significant p>0.05.
molecule,measurement,setting,value
"O=C1O[C@H]([C@@H](O)CO)C(O)=C1O [Vit C, Vitamin C]",ROS change vs H2O2,[1]; Vit C 500 μM,−90% vs H2O2 ***
same,ROS Mean,[1]; Vit C 500 μM,12807.703 Arbitrary Unit
O=c1c(O)c(-c2ccc(O)c(O)c2)oc2cc(O)cc(O)c12 [Quercetin],ROS change vs H2O2,[1]; Quercetin at 10 μmol/l,−90% vs H2O2 ***
same,ROS Mean,[1]; Quercetin at 10 μmol/l,12959.361 Arbitrary Unit
TGFβ1: positive control for dermal matrix induction markers,Collagen I Degree of expression (Relative Quantity),Collagen I; 6 h of treatment,0.84 ns
same,Collagen I Degree of expression (Relative Quantity),Collagen I; 24 h of treatment,2.30 *
same,Dermatopontin Degree of expression (Relative Quantity),Dermatopontin; 6 h of treatment,1.14 ns
same,Dermatopontin Degree of expression (Relative Quantity),Dermatopontin; 24 h of treatment,1.36 *
same,CTNNA1 Degree of expression (Relative Quantity),CTNNA1 (Catenin α); 6 h of treatment,1.07 ns
same,CTNNA1 Degree of expression (Relative Quantity),CTNNA1 (Catenin α); 24 h of treatment,1.07 ns
same,SPARC Degree of expression (Relative Quantity),SPARC; 6 h of treatment,1.28 ns
same,SPARC Degree of expression (Relative Quantity),SPARC; 24 h of treatment,2.00 ***
same,Elastin Degree of expression (Relative Quantity),Elastin; 6 h of treatment,0.72 ns
same,Elastin Degree of expression (Relative Quantity),Elastin; 24 h of treatment,3.65 **
same,TNC Degree of expression (Relative Quantity),TNC (Tenacin C); 6 h of treatment,0.94 ns
same,TNC Degree of expression (Relative Quantity),TNC (Tenacin C); 24 h of treatment,1.79 *
same,BGN Degree of expression (Relative Quantity),BGN (Biglycan); 6 h of treatment,1.28 ns
same,BGN Degree of expression (Relative Quantity),BGN (Biglycan); 24 h of treatment,2.92 ***
same,Collagen III Degree of expression (Relative Quantity),Collagen III; 6 h of treatment,0.91 ns
same,Collagen III Degree of expression (Relative Quantity),Collagen III; 24 h of treatment,1.24 ns
same,LOXL Degree of expression (Relative Quantity),LOXL; 6 h of treatment,1.05 ns
same,LOXL Degree of expression (Relative Quantity),LOXL; 24 h of treatment,1.10 ns
same,Syndecan Degree of expression (Relative Quantity),Syndecan; 6 h of treatment,1.85 ns
same,Syndecan Degree of expression (Relative Quantity),Syndecan; 24 h of treatment,8.08 ***
same,Fibronectin Degree of expression (Relative Quantity),Fibronectin; 6 h of treatment,1.09 ns
same,Fibronectin Degree of expression (Relative Quantity),Fibronectin; 24 h of treatment,2.12 *
same,Collagen VII Degree of expression (Relative Quantity),Collagen VII; 6 h of treatment,1.96 ***
same,Collagen VII Degree of expression (Relative Quantity),Collagen VII; 24 h of treatment,3.07 ***
same,Collagen IV Degree of expression (Relative Quantity),Collagen IV; 6 h of treatment,1.68 ***
same,Collagen IV Degree of expression (Relative Quantity),Collagen IV; 24 h of treatment,2.81 **
same,Versican Degree of expression (Relative Quantity),Versican; 6 h of treatment,1.61 ns
same,Versican Degree of expression (Relative Quantity),Versican; 24 h of treatment,2.87 **
"COc1ccc2c(c1)c(CC(=O)O)c(C)n2C(=O)c1ccc(Cl)cc1 [Indo, indomethacin]",PGE2 change vs PMA,Prostaglandin E2 (PGE2),−77% vs PMA ***
same,PGE2 Mean,Prostaglandin E2 (PGE2); PMA stimulated,181.780 (pg/ml)/OD neutral red
